The record followed here is patent US20220017572A1, “GEMINOID LIPOPEPTIDE COMPOUNDS AND THEIR USES” (Erasmus University Medical Center Rotterdam, priority 2016, published 2022).

The structures appear in SMILES notation. Residues, ends and D or L forms follow the SMILES beside them.

In experiment [1] the target is T1, dengue 2 protease (Dengue virus type 2, UniProt P14340).
T1 construct: The active site of the dengue protease is in the N-terminal part of NS3
Put plainly: Dengue 2 protease inhibition, hydrolysis of Z-RR-MCA. Type of experiment: biochemical, dengue 2 virus. The arrangement: unit not given here. To be noted: 10 μM Z-RR-MCA, pH 9.0, 37° C., initial activity in UAF/min.

The target of experiment [2] is T1, dengue 2 protease. Described as above. Type of experiment: biochemical, dengue 2 virus. Also noted: Activity with inhibitors: unit not given here. The settings on record: for activity at 5 µM: 5 μM inhibitor; for activity at 10 µM: 10 μM inhibitor; for activity at 15 µM: 15 μM inhibitor; for Activity with inhibitors: 25 μM of inhibitor, 10 μM Z-RR-MCA, pH 9.0, 37° C., initial activity in UAF/min; for activity at 40 µM: 40 μM inhibitor. The procedure:
The active site of the dengue protease is in the N-terminal part of NS3 which is also a serine protease with catalytic triad Asp79-His51-Ser135, but requires […] (CF40) for activity; the inhibition reported here was studied on a […] (CF40-GGGGSGGGG-NS3; (SEQ ID NO:54)) which has also been structurally characterized [Erbel et al., 2006; Luo et al. 2008].
(§1) Substrate was added in a concentration 10 times the Km, and the inhibitor compounds of type C (C16-KGnK-C16, C16-KAnK-C16, and C16-RAnR-C16) were added in increasing concentrations (1.0, 5.0, 10.0, 20.0, 40.0 μL) from a stock solution of 2 mg in 1 mL DMSO. The residual activity was measured in a Hitachi F2500 spectrofluorimeter, and plots were fitted using the Grafit® software (Erithracus Software, Horley, Surrey, UK). All the assays were calculated by the Morrison equation for competitive inhibition (eq. 1, [Morrison, 1969]). The amount of substrate used for the tight binding titration experiments follow all the requirements, where [S]<<Km for all enzymes, so the Kiapp=Ki.
(§2) Range of Proteases Inhibited by Geminoids, Determination of Ki with Z-RR-MCA (Dengue 2 Protease) and Ac-RVRR-MCA (Furin) (SEQ ID NO:60).

Experiment [3] addresses T1, dengue 2 protease. Put plainly: Dengue 2 protease inhibition in presence of Triton X-100 (detergent test, Nature Protocol). Type of experiment: biochemical, dengue 2 virus. To be noted: 0.05% Triton X-100; for Activity with 0.05% Triton: initial activity in UAF/min. The source says: A further investigation of the interactions of the geminoid inhibitors with biological membranes and with membrane-bound proteases is needed. […] The preparation and tests of peptides symmetrically, asymmetrically and singly alkylated with saturated, short (C6), and unsaturated (C18:1) alkyl tails are in progress.

Another experiment concerns DENV2 protease replicon. The experiment is described as follows: DENV2 protease replicon assay. The settings on record: lowest concentration with observed activity in replicon assay. In kind it is cell-based. (In general: A replicon is a self-replicating genome or part of one, used to study replication in cells.)
Another experiment concerns the target human furin (Homo sapiens, UniProt P09958). Put plainly: Human furin inhibition, hydrolysis of Ac-RVRR-MCA. Type of experiment: biochemical. The settings on record: for activity at 5 µM: 5 μM inhibitor; for activity at 10 µM: 10 μM inhibitor; for activity at 15 µM: 15 μM inhibitor; for activity at 40 µM: 40 μM inhibitor. The procedure:
as §1, with “The enzyme was dissolved in 1 mL MES buffer (10 mM), 1 mM CaCl2, pH 7.0 at 36.5° C. Substrate” for “Substrate”
However, for furin we used a correction of Ki app, where [S]˜Km (eq. 2).
as §2

Another experiment deals with T2, DENV2 protease (Dengue virus type 2, UniProt P14340).
T2 construct: The active site of the dengue protease is in the N-terminal part of NS3
T2 sequence (P14340 1476-1653): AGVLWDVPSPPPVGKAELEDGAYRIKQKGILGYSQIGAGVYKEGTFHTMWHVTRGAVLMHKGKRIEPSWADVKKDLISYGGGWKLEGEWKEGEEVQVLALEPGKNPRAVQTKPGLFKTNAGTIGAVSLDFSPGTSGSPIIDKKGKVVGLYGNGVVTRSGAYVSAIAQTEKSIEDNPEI
T2 sequence (P14340 1398-1437): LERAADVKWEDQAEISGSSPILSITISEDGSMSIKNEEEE
Put plainly: DENV2 protease biochemical assay. The settings on record: 50 μM inhibitor.

A further experiment addresses thrombin (Homo sapiens, UniProt P00734). The experiment is described as follows: Thrombin inhibition, fluorimetric enzyme assay. The settings on record: 36.5° C., read-out: Residual Activity (%) Thrombin; for remaining activity at 15 µM: 15 μM inhibitor. In kind it is biochemical. The procedure: as §1, with “The enzyme was dissolved in 1 mL MES buffer (10 mM), 1 mM CaCl2, pH 7.0 at 36.5° C. Substrate” for “Substrate”, “Kiapp=Ki. […]” for “Kiapp=Ki.”

A further experiment deals with T3, trypsin (Bos taurus, UniProt P00760).
T3 construct: gene PRSS1
T3 sequence (P00760 24-246): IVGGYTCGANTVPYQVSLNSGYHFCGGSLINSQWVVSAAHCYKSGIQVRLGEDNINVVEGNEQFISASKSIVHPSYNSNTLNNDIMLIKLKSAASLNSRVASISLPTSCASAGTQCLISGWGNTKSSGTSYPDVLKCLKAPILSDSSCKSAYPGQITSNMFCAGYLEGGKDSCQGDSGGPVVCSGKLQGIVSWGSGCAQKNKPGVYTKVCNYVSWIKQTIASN
The experiment is described as follows: Trypsin inhibition, fluorimetric enzyme assay. In kind it is biochemical. To be noted: for remaining activity at 15 µM: 15 μM inhibitor. The method, then: as §1, with “The enzyme was dissolved in 1 mL MES buffer (10 mM), 1 mM CaCl2, pH 7.0 at 36.5° C. Substrate” for “Substrate”
The first group of gemini-like peptide amphiphiles to be screened was that of C16-K(G or A)nK-C16 (compound type C, with R1=n-C15H31, R2=n-C16H33). […] The results of the Ki determination for trypsin, dengue 2 protease, and human furin are given in Table 1A; some general data for the inhibition by this type of compounds are given in Table 1B. For most compounds in Table 1 the Ki could be derived from competitive inhibition experiments. Judging from the Ki values with the relatively simple substrate Z-RR-MCA, the best inhibitors for dengue 2 protease contain alanine (A) rather than glycine (G).

The mark [4] stands for this setting: 36.5° C., read-out: Residual Activity (%) Trypsin.

Sequence of human furin (P09958 108-794): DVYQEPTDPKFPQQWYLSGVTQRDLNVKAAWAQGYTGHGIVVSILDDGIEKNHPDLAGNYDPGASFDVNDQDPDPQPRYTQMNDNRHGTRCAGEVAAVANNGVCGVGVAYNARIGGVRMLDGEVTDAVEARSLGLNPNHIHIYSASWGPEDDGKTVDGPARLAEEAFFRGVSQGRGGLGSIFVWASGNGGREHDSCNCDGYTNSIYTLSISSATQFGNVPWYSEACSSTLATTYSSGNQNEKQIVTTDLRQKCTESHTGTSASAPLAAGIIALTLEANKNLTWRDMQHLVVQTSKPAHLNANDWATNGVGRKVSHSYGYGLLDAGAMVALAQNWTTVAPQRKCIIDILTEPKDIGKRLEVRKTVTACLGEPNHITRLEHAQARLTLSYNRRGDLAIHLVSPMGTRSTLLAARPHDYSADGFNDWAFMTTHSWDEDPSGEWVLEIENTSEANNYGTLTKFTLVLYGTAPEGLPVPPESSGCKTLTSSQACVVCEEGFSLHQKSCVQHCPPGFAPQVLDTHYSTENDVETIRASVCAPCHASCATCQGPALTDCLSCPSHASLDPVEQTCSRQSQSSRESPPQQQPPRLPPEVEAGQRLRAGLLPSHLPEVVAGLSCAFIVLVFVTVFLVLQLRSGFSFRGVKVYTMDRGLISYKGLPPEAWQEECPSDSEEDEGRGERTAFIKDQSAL
T1 sequence (P14340 1476-1653): as the sequence (P14340 1476-1653) above

For `CCCCCCCCCCCCCCCCNC(=O)[C@H](CCCNC(=N)N)NC(=O)[C@H](C)NC(=O)[C@H](C)NC(=O)[C@H](CCCNC(=N)N)NC(=O)CCCCCCCCCCCCCCC` [C16RA2RC16, n-C15H31C(O)-Arg-(Ala)2-Arg-(n-C16H33).2TFA] (HELM PEPTIDE1{[CCCCCCCCCCCCCCCC(=O)[*:2]].R.A.A.R.[CCCCCCCCCCCCCCCCN[*:1]]}$$$$V2.0), the Activity with inhibitors on dengue 2 protease [1] (30 μM of inhibitor) was determined as 0. Also, affinity at dengue 2 protease [2] was put at a Ki of 2100 nM. Moreover, on dengue 2 protease [3] (30 μM of inhibitor), the “% recovery in presence of Triton” value came to 61% and the “Activity with 0.05% Triton” value amounted to 128.
In turn, `CCCCCCCCCCCCNC(=O)[C@H](CCCCN)NC(=O)[C@H](CCCCN)NC(=O)CCCCCCCCCCC` [C12KKC12, n-C11H23C(O)-Lys-Lys-(n-C12H25).2TFA] yielded an Activity with inhibitors on dengue 2 protease [1] (30 μM of inhibitor) of 0. At dengue 2 protease [2], the Ki turned out to be 132000 nM. On dengue 2 protease [3] (30 μM of inhibitor), the “% recovery in presence of Triton” value is reported as 82% and the “Activity with 0.05% Triton” value came to 180.
For the compound `CCCCCCCCCCCCCCCCNC(=O)[C@H](CCCCN)NC(=O)[C@H](C)NC(=O)[C@H](C)NC(=O)[C@H](CCCCN)NC(=O)CCCCCCCCCCCCCCC` [C16-KAAK-C16] (HELM PEPTIDE1{[CCCCCCCCCCCCCCCC(=O)[*:2]].K.A.A.K.[CCCCCCCCCCCCCCCCN[*:1]]}$$$$V2.0), in the experiment on DENV2 protease replicon, the “Replicon activity [μM] (1)” value worked out at 3.0 µM. In addition, the activity at 2.5 µM on human furin (2.5 μM inhibitor, 36.5° C.) was 94%; at dengue 2 protease [2] (2.5 μM inhibitor, 36.5° C.), 89%. Moreover, the activity at 5 µM on human furin (36.5° C.) was 83%; on dengue 2 protease [2] (36.5° C.) it was 79%. Further, the activity at 10 µM at human furin (36.5° C.) stood at 77%; on dengue 2 protease [2] (36.5° C.), 68%. For the same compound, the activity at 15 µM came to 69% at human furin (36.5° C.) and 45% on dengue 2 protease [2] (36.5° C.). Moreover, the activity at 40 µM at human furin (36.5° C.) was found to be 3%; at dengue 2 protease [2] (36.5° C.), 10%. Also, the Ki at human furin (10 mM Mes.NaOH, pH 7.0, 2.35 μM Ac-RVRR-MCA, 37° C., read-out: Ki hFurin) was 970 nM; at dengue 2 protease [2], 630 nM. The compound further returned an Activity with inhibitors at dengue 2 protease [2] of 0. Moreover, the inhibition at 50 µM against DENV2 protease was 97.7%. In addition, the remaining activity at 15 µM at thrombin was determined as 80%; at trypsin (setting [4]) it was 64%. Also, the remaining activity at 40 µM was 55% on thrombin (40 μM inhibitor) and 20% at trypsin (40 μM inhibitor, 36.5° C., read-out: Residual Activity (%) Trypsin). The remaining activity at 80 µM at thrombin (80 μM inhibitor) was determined as 39%; at trypsin (80 μM inhibitor, 36.5° C., read-out: Residual Activity (%) Trypsin), 7%. Besides, the “% recovery in presence of Triton” value on dengue 2 protease [3] (25 μM of inhibitor) is 56%. On dengue 2 protease [3] (25 μM of inhibitor), the “Activity with 0.05% Triton” value was found to be 100.
Take `CCCCCCCCCCCCCCCCNC(=O)[C@H](CCCCN)NC(=O)CNC(=O)[C@H](CCCCN)NC(=O)CCCCCCCCCCCCCCC` [C16-KGK-C16, C15H31CO-KGK-NH—C16H33]: in the experiment with DENV2 protease replicon, the “Replicon activity [μM] (1)” value was 1.0 µM. In addition, the results for the activity at 5 µM on human furin (36.5° C.) and on dengue 2 protease [2] (36.5° C.) were 53% and 75%, respectively. Moreover, the activity at 10 µM came to 18% on human furin (36.5° C.) and 54% on dengue 2 protease [2] (36.5° C.). The activity at 15 µM on human furin (36.5° C.) was 7%; on dengue 2 protease [2] (36.5° C.) it was 40%. Also, the activity at 20 µM on human furin (20 μM inhibitor, 36.5° C.) worked out at 4%; on dengue 2 protease [2] (20 μM inhibitor, 36.5° C.), 29%. For the same compound, the activity at 40 µM at human furin (36.5° C.) is 0%; at dengue 2 protease [2] (36.5° C.) it was 2%. Besides, the Ki at dengue 2 protease [2] worked out at 1560 nM; at trypsin, 41600 nM. The same compound registered an Activity with inhibitors at dengue 2 protease [2] of 50. At DENV2 protease, the inhibition at 50 µM was 103%. Also, the remaining activity at 15 µM at thrombin is 75%; on trypsin (setting [4]), 76%. In addition, the remaining activity at 55 µM was determined as 61% on thrombin (55 μM inhibitor) and 40% on trypsin (55 μM inhibitor, 36.5° C., read-out: Residual Activity (%) Trypsin). The remaining activity at 85 µM on thrombin (85 μM inhibitor) was 40%; on trypsin (85 μM inhibitor, 36.5° C., read-out: Residual Activity (%) Trypsin) it was 24%. Further, at dengue 2 protease [3] (25 μM of inhibitor), the “% recovery in presence of Triton” value is on record as 48%. Also, the “Activity with 0.05% Triton” value at dengue 2 protease [3] (25 μM of inhibitor) was 90.
Consider `CCCCCCCCCCCCNC(=O)[C@H](CCCCN)NC(=O)[C@H](C)NC(=O)[C@H](C)NC(=O)[C@H](CCCCN)NC(=O)CCCCCCCCCCC` [C12KA2KC12, n-C11H23C(O)-Lys-(Ala)2-Lys-(n-C12H25).2TFA] (HELM PEPTIDE1{[CCCCCCCCCCCC(=O)[*:2]].K.A.A.K.[CCCCCCCCCCCCN[*:1]]}$$$$V2.0), for which the Activity with inhibitors on dengue 2 protease [1] (20 μM of inhibitor) is 5. The inhibitory constant (Ki) at dengue 2 protease [2] was 11600 nM. For the same compound, at dengue 2 protease [3] (20 μM of inhibitor), the “% recovery in presence of Triton” value is listed as 95% and the “Activity with 0.05% Triton” value came to 216.
`CCCCCCCCCCCCCCCCNC(=O)[C@H](CCCNC(=N)N)NC(=O)[C@H](C)NC(=O)[C@H](C)NC(=O)[C@H](C)NC(=O)[C@H](C)NC(=O)[C@H](CCCNC(=N)N)NC(=O)CCCCCCCCCCCCCCC` [C16RA4RC16, n-C15H31C(O)-Arg-(la)4-Arg-(n-C16H33).2TFA] (HELM PEPTIDE1{[CCCCCCCCCCCCCCCC(=O)[*:2]].R.A.A.A.A.R.[CCCCCCCCCCCCCCCCN[*:1]]}$$$$V2.0) came in with an Activity with inhibitors on dengue 2 protease [1] (20 μM of inhibitor) of 22. For the same compound, the Ki on dengue 2 protease [2] stood at 1400 nM. In addition, at dengue 2 protease [3] (20 μM of inhibitor), the “% recovery in presence of Triton” value turned out to be 68% and the “Activity with 0.05% Triton” value came out at 164.
`CCCCCCCCCCCCCCCCNC(=O)[C@H](CCCNC(=N)N)NC(=O)[C@H](CCCNC(=N)N)NC(=O)CCCCCCCCCCCCCCC` [C16RRC16, n-C15H31C(O)-Arg-Arg-(n-C16H33).2TFA] returned an Activity with inhibitors on dengue 2 protease [1] (20 μM of inhibitor) of 48. The compound further came in with a Ki at dengue 2 protease [2] of 800 nM. Further, on dengue 2 protease [3] (20 μM of inhibitor), the “% recovery in presence of Triton” value was found to be 74% and the “Activity with 0.05% Triton” value is listed as 148.

As a reminder, the Ki is a dissociation constant, usually derived from enzyme kinetics or from competition with a known ligand. The term inhibition denotes the drop in the measured response relative to a control, in per cent.
